pIC50: −log10 of the molar value. Where “and” joins values, the source holds several entries; their conditions need not be identical. Equal entries are not always repeated. Where two headings read alike, the source gives them in different places.
How the values were obtained:
[1] = tested on: T. cruzi intracellular amastigotes; assay: In vitro anti-T. cruzi intracellular amastigote growth inhibition assay (tdTomato fluorescence over 72 hours, Vero cells); assay type: cell-based, Trypanosoma cruzi; conditions: Trypanosoma cruzi, Vero
Procedure: (§1) The in vitro anti-T. cruzi amastiogote activity assay was performed and optimized based on the protocol described previously. The change in tdTomato fluorescence intensity was determined as a measurement of growth over 72 hours of culture. For assaying drug effects on extracellular amastigotes, trypomastigotes were collected from infected Vero cell cultures and converted in acidic media as previously described. Amastigotes (50,000/well) were incubated with 2-fold serial dilutions of compounds for 48 hours. The ATP production was used as an indication of growth in this case, and was measured by ATPlite Luminescence ATP Detection Assay System (PerkinElmer). Both fluorescence and luminescence were read using a BioTek Synergy Hybrid Multi-Mode reader equipped with the software Gene5 v 2.0 (BioTek). The dose-response curve was generated by […] analysis with GraphPad Prism v9.4.0 (GraphPad Software).

[2] = tested on: CPSF3-OE T. cruzi intracellular amastigotes; assay: microbe, parasite or virus in culture; assay type: cell-based; conditions: Trypanosoma cruzi, read-out: CPSF3-OE IC50, intracellular amastigotes
Procedure: as §1
The CPSF3 gene was amplified using primers ‘[…]’ and ‘[…]’, and integrated into the pTrex vector [47] by NEBuilder HiFi DNA assembly (New England Biolabs). The construct of pTrex-CPSF was then transfected into Brazil tdTomato epimastigotes and selected by 60ug/ml blasticidin.
To confirm the CPSF overexpression in the selected transfectants, RNA was extracted as previously described and converted to cDNA using SuperScript Reverse Transcriptase (Invitrogen). Quantitative PCR reactions were performed in triplicate on the C1000 Touch Bio-Rad CFX96 real-time PCR detection system for CPSF using primer sets CPSF-1 (5'-[…]-3' and 5'-[…]-3') and CPSF-2 (5'-[…]-3' and 5'-[…]-3') in both control and CPSF over-expressing parasites, and the expression level was normalized to tubulin which was amplified using primers: ‘[…]’ and ‘[…]’.

[3] = tested on: TcCBP KO T. cruzi intracellular amastigotes; assay: microbe, parasite or virus in culture; assay type: cell-based; conditions: Trypanosoma cruzi, read-out: TcCBP KO IC50
Procedure: as §1
The CBPs knockout was produced using ribonucleoprotein (RNP) complexes as previously described. Briefly, Brazil tdTomato strain epimastigotes were electroporated with RNP complexes containing SaCas9 and an sgRNA targeting CBP gene TcBrA4_0048170, plus a repair template containing stop codons in all three reading frames and the M13 sequence for use as a PCR anchor. The sgRNA targeted the ‘[…]” sequence. After 2 days of recovery, single-cell clones were derived by depositing epimastigotes into a 96-well plate at a density of 0.5 cell/well by using a MoFlo Astrios EQ cell sorter (Beckman Coulter). DNA isolation was performed for clones, and primer pair of 5’-[…]-3’ and 5’- […] -3’ was used for amplifying the wild type allele, while primer pair of M13-F: 5’- […] -3’ and 5’- […] -3’ was used for amplifying the mutant allele.

T. cruzi Brazil strain [4] = assay: Mouse cure assays (daily oral treatment, immunosuppression, qPCR of skeletal muscle, blood microscopy, hemoculture); assay type: in vivo, C57BL/6 mice; conditions: individual mice
Procedure: Male or female C57BL/6 mice were intraperitoneally infected with 10^4 trypomastigotes of the Brazil strain. Mouse infection was confirmed at 25-30 dpi by detection of CD8^+ T cells specific against the T. cruzi TSKb20 peptide in blood. Compounds resuspended in 1% carboxymethyl cellulose and 0.1% Tween 80, were administered daily by gavage at the specified concentrations. In order to optimally detect persistent infection, immune responses in the mice were suppressed by intraperitoneal injection of four doses of cyclophosphamide every 2-3 days (200 mg/kg/day), beginning one week after the end of therapeutic treatment. At the end of the immunosuppression regimen, peripheral blood was checked under light microscope for parasites and cultured in LDNT media. Mouse skeletal muscle samples were obtained at the end of the immunosuppression and processed for T. cruzi-DNA detection by qPCR as previously described.

[5] = tested on: broad array of mammalian enzymes, receptors and ion channels; assay: Preliminary safety pharmacology panel; assay type: binding
[6] = In vitro micronucleus study; assay type: cell-based
[7] = tested on: representative cytochrome P450 enzymes; assay: Cytochrome P450 inhibition; assay type: in vitro ADME; conditions: 10 uM
[8] = High dose 7-day toxicology study with exposure; conditions: 7-day toxicology studies / rats
[9] = in vivo
T. cruzi Brazil strain [10] = tested on: T. cruzi Brazil strain; parameters: method as in PMID 23945371; conditions: cited from earlier work
[11] = tested on: T. cruzi CL strain in Vero cells; assay: RNA-seq: parasite mRNA relative to host cell (Vero) mRNA; assay type: cell-based, Trypanosoma cruzi
Procedure: The drug concentration used for treatment was set at 5 times the IC50. Samples were collected at several time points for RNA extraction as previously described. rRNA-depleted RNA library construction and RNA sequencing using Illumina Nextseq 75PE was carried out by Georgia Genomics and Bioinformatics Core (GGBC, University of Georgia, Georgia). […] The mapping rate was quantified by HTseq v0.6.1 [51].

T. cruzi = conditions: cited from earlier work
[12] = in vitro, Fig. 1a, Extended Data Fig. 1a, read-out: T. cruzi IC50

Cc1c(C(=O)N[C@H](C(=O)OCc2ccc(F)cc2)C(C)(C)O)ccc2c1B(O)OC2 [AN14817]
activity at 0.00407 µM ([1]; 72 h, read-out: % of maximum, WT, [uM] -2.39 [sic], single replicates): 79%
pIC50 ([1]; read-out: WT IC50, WT intracellular amastigotes, control of CPSF3-OE comparison): 8.20
pIC50 ([1]; read-out: WT IC50, WT intracellular amastigotes, control of TcCBP KO comparison): 8.20
pIC50 [1, 12]: 7.92
pIC50 [2]: 7.61
pIC50 [3]: 5.66
Parasite equivalent/ 50 ng of DNA of skeletal muscle (T. cruzi Brazil strain [4]; Fig. 3b, mice treated for 40 days): 0.12 Parasite equivalent/ 50 ng of DNA and 0.09 Parasite equivalent/ 50 ng of DNA and 0.00383 Parasite equivalent/ 50 ng of DNA and 0.0341 Parasite equivalent/ 50 ng of DNA and 0.00725 Parasite equivalent/ 50 ng of DNA and 0.00351 Parasite equivalent/ 50 ng of DNA and 0.0145 Parasite equivalent/ 50 ng of DNA and 0.17 Parasite equivalent/ 50 ng of DNA
Parasite equivalent/ 50 ng of DNA of skeletal muscle (T. cruzi Brazil strain [4]; Fig. 3c, mice treated for 20 days): 0.30 Parasite equivalent/ 50 ng of DNA and 0.59 Parasite equivalent/ 50 ng of DNA and 0.42 Parasite equivalent/ 50 ng of DNA and 0.29 Parasite equivalent/ 50 ng of DNA and 0.40 Parasite equivalent/ 50 ng of DNA
affinity for mammalian enzymes, receptors and ion channels [5]: little to no affinity
genotoxicity, Ames (Ames study): non-genotoxic
genotoxicity, in vitro micronucleus [6]: non-genotoxic
inhibition of representative cytochrome P450 enzymes [7]: did not demonstrate significant inhibition
dose proportionality of exposure [8]: non-dose proportional exposure

O=C(Nc1ccc2c(c1)B(O)OC2)c1ccc(F)cc1C(F)(F)F [AN4169]
pIC50 [1, 12]: 6.46
rodent tolerability [9]: insufficient therapeutic margin
cure of infected mice (T. cruzi Brazil strain [10]; mice infected with the T. cruzi Brazil strain): 100%

O=C(Cn1ccnc1[N+](=O)[O-])NCc1ccccc1 [benznidazole, reference compound]
RNA-seq reads mapped to African green monkey ([11]; 0hpt): 52
RNA-seq reads mapped to T.cruzi CL Brener ([11]; 0hpt): 17
RNA-seq reads unmapped ([11]; 0hpt): 31
RNA-seq reads mapped to African green monkey ([11]; 12hpt): 61
RNA-seq reads mapped to T.cruzi CL Brener ([11]; 12hpt): 14
RNA-seq reads unmapped ([11]; 12hpt): 25
RNA-seq reads mapped to African green monkey ([11]; 24hpt): 62
RNA-seq reads mapped to T.cruzi CL Brener ([11]; 24hpt): 12
RNA-seq reads unmapped ([11]; 24hpt): 27
cure with 20 days of treatment (T. cruzi Brazil strain [10]; mice): only partially effective in generating cure
failures in treatment trial (T. cruzi; T. cruzi-infected NHPs, ref Tarleton, et al., in preparation): > 60%
cure rate (T. cruzi; cyno macaques, ref unpublished result of the authors): ~ 30%
